Experimental data reported in patent publication US20040063662A1, “Selenophene anti-tumor agents” (priority 1996, published 2004).

Experiments:
TK-10 = experiment: NCI human tumor cell panel: TK-10 (Renal Cancer); assay type: cell-based; conditions: TK-10, Renal Cancer
BT-549 = experiment: NCI human tumor cell panel: BT-549 (Breast Cancer); assay type: cell-based; conditions: BT-549, Breast Cancer
MDA-N = experiment: NCI human tumor cell panel: MDA-N (Breast Cancer); assay type: cell-based; conditions: Breast Cancer
HCT-15 = experiment: NCI human tumor cell panel: HCT-15 (Colon Cancer); assay type: cell-based; conditions: HCT-15, Colon Cancer
SK-MEL-28 = experiment: NCI human tumor cell panel: SK-MEL-28 (Melanoma); assay type: cell-based; conditions: SK-MEL-28, Melanoma
NCI-H522 = experiment: NCI human tumor cell panel: NCI-H522 (Non-Small Cell Lung Cancer)
UO-31 = experiment: NCI human tumor cell panel: UO-31 (Renal Cancer); assay type: cell-based; conditions: UO-31, Renal Cancer
MCF7/ADR-RES = experiment: NCI human tumor cell panel: MCF7/ADR-RES (Breast Cancer); assay type: cell-based; conditions: Breast Cancer
HCC-2998 = experiment: NCI human tumor cell panel: HCC-2998 (Colon Cancer); assay type: cell-based; conditions: HCC-2998, Colon Cancer, read-out: Log10 TGI (converted)
EKVX = experiment: NCI human tumor cell panel: EKVX (Non-Small Cell Lung Cancer); assay type: cell-based; conditions: Non-Small Cell Lung Cancer, read-out: Log10 GI50 (converted)
HT29 = experiment: NCI human tumor cell panel: HT29 (Colon Cancer); assay type: cell-based; conditions: HT-29, HT29, Colon Cancer
NCI-H322M = experiment: cells; assay type: cell-based; conditions: Homo sapiens, Non-Small Cell Lung Cancer
HS 578T = experiment: NCI human tumor cell panel: HS 578T (Breast Cancer); assay type: cell-based; conditions: Breast Cancer
U251 = experiment: NCI human tumor cell panel: U251 (CNS Cancer); assay type: cell-based; conditions: U-251, U251, CNS Cancer
HOP-62 = experiment: NCI human tumor cell panel: HOP-62 (Non-Small Cell Lung Cancer); assay type: cell-based; conditions: HOP-62, Non-Small Cell Lung Cancer, read-out: Log10 TGI (converted)
NCI-H460 = experiment: NCI human tumor cell panel: NCI-H460 (Non-Small Cell Lung Cancer); assay type: cell-based; conditions: NCI-H460, Non-Small Cell Lung Cancer
IGROV1 = experiment: NCI human tumor cell panel: IGROV1 (Ovarian Cancer); assay type: cell-based; conditions: IGROV-1, IGROV1, Ovarian Cancer
SK-MEL-2 = experiment: NCI human tumor cell panel: SK-MEL-2 (Melanoma); assay type: cell-based; conditions: SK-MEL-2, Melanoma
PC-3 = experiment: NCI human tumor cell panel: PC-3 (Prostate Cancer); assay type: cell-based; conditions: PC-3, Prostate Cancer
SNB-19 = experiment: NCI human tumor cell panel: SNB-19 (CNS Cancer); assay type: cell-based; conditions: SNB-19, CNS Cancer
OVCAR-5 = experiment: NCI human tumor cell panel: OVCAR-5 (Ovarian Cancer); assay type: cell-based; conditions: OVCAR-5, Ovarian Cancer
SR = experiment: NCI human tumor cell panel: SR (Leukemia); assay type: cell-based; conditions: Leukemia
SNB-75 = experiment: NCI human tumor cell panel: SNB-75 (CNS Cancer); assay type: cell-based; conditions: SNB-75, CNS Cancer
NCI-H23 = experiment: NCI human tumor cell panel: NCI-H23 (Non-Small Cell Lung Cancer); assay type: cell-based; conditions: NCI-H23, Non-Small Cell Lung Cancer, read-out: Log10 TGI (converted)
MDA-MB-435 = experiment: NCI human tumor cell panel: MDA-MB-435 (Breast Cancer); assay type: cell-based; conditions: MDA-MB-435, Breast Cancer
LOX IMVI = experiment: NCI human tumor cell panel: LOX IMVI (Melanoma); assay type: cell-based; conditions: Melanoma
786-0 = experiment: NCI human tumor cell panel: 786-0 (Renal Cancer); assay type: cell-based; conditions: 786-0, Renal Cancer
SF-539 = experiment: NCI human tumor cell panel: SF-539 (CNS Cancer); assay type: cell-based; conditions: SF-539, CNS Cancer
SF-295 = experiment: NCI human tumor cell panel: SF-295 (CNS Cancer); assay type: cell-based; conditions: SF-295, CNS Cancer
M14 = experiment: NCI human tumor cell panel: M14 (Melanoma); assay type: cell-based; conditions: M14, Melanoma
HOP-92 = experiment: NCI human tumor cell panel: HOP-92 (Non-Small Cell Lung Cancer)
[1] = read-out: Log10 GI50 (converted)
[2] = read-out: Log10 TGI (converted)

O=Cc1ccc(-c2ccc(-c3ccc(C=O)[se]3)s2)[se]1 [NSC 676630]
1.62 µM: IC (TGI) (TK-10; [2])
67.6 µM: GI50 (SNB-75; [1])
79.4 µM: GI50 (MCF7/ADR-RES; [1])
85.1 µM: IC (TGI) (HCC-2998)
0.129 µM: GI50 (NCI-H460; [1])
> 100 µM: IC (TGI) (BT-549; [2]) | GI50 (MDA-N; [1]) | IC (TGI) (MDA-N; [2]) | GI50 (HCT-15; [1]) | IC (TGI) (HCT-15; [2]) | GI50 (SK-MEL-28; [1]) | IC (TGI) (SK-MEL-28; [2]) | GI50 (UO-31; [1]) | IC (TGI) (UO-31; [2]) | IC (TGI) (MCF7/ADR-RES; [2]) | GI50 (EKVX) | GI50 (HT29; [1]) | IC (TGI) (HT29; [2]) | GI50 (NCI-H322M; [1]) | IC (TGI) (NCI-H322M; [2]) | GI50 (HS 578T; [1]) | IC (TGI) (HS 578T; [2]) | IC (TGI) (U251; [2]) | IC (TGI) (HOP-62) | IC (TGI) (NCI-H460; [2]) | IC (TGI) (IGROV1; [2]) | GI50 (SK-MEL-2; [1]) | IC (TGI) (SK-MEL-2; [2]) | GI50 (PC-3; [1]) | IC (TGI) (PC-3; [2]) | GI50 (SNB-19; [1]) | IC (TGI) (SNB-19; [2]) | GI50 (SR; [1]) | IC (TGI) (SR; [2]) | IC (TGI) (SNB-75; [2]) | IC (TGI) (NCI-H23) | GI50 (MDA-MB-435; [1]) | IC (TGI) (MDA-MB-435; [2]) | GI50 (LOX IMVI; [1]) | IC (TGI) (LOX IMVI; [2]) | GI50 (786-0; [1]) | IC (TGI) (786-0; [2]) | GI50 (SF-539; [1]) | IC (TGI) (SF-539; [2]) | GI50 (SF-295; [1]) | IC (TGI) (SF-295; [2]) | GI50 (M14; [1]) | IC (TGI) (M14; [2]) | GI50 (HOP-92; HOP-92, read-out: Log10 GI50 (converted)) | IC (TGI) (HOP-92; HOP-92, read-out: Log10 TGI)
20.9 µM: GI50 (NCI-H522; NCI-H522, read-out: Log10 GI50 (converted))
1.48 µM: GI50 (IGROV1; [1])
0.589 µM: GI50 (U251; [1])
0.132 µM: GI50 (OVCAR-5; [1])
53.7 µM: IC (TGI) (NCI-H522; NCI-H522, read-out: Log10 TGI)
0.447 µM: IC (TGI) (OVCAR-5; [2])
0.38 µM: GI50 (TK-10; [1])
63.1 µM: GI50 (BT-549; [1])
